Laboratory results published in patent US4456611A, “Derivatives of 2-[3-(3-indoly)2-amino propionyloxy] acetic acid, and seritoning increasing use thereof” (Laboratoires Panmedica, priority 1981, dated 1984).

Test system: endogenous serotonin in the brain
Assay: biochemical assay of endogenous serotonin in the brain of rats after oral administration of a single dose
Assay type: in vivo
Conditions: orally, single dose of 10 mg/kg, Wistar male adult rats
Procedure: The compounds according to the invention show remarkable pharmacological activities, in particular on the central nervous system. These assays were carried out after administration orally of a single dose of 10 mg/kg in Wistar male adult rats.

| Compound | % increase of brain serotonin [%] |
| --- | --- |
| CCCCCCCCCCCCOC(=O)COC(=O)[C@@H](N)Cc1c[nH]c2ccc(O)cc12 [Example 13b, n-dodecyl L-2-[3-(5-hydroxy 3-indolyl) 2-aminopropionyloxy]acetate] | 26 |
| CCCCCCCCOC(=O)COC(=O)[C@@H](N)Cc1c[nH]c2ccc(O)cc12 [Example 12b, n-octyl L-2-[3-(5-hydroxy 3-indolyl) 2-aminopropionyloxy]acetate] | 15 |
| N[C@@H](Cc1c[nH]c2ccc(O)cc12)C(=O)O [(L)5 HTP, 5-hydroxy-tryptophane, reference compound] | 10 |
| CCOC(=O)COC(=O)[C@@H](N)Cc1c[nH]c2ccc(O)cc12 [Example 6b, Ethyl L-2-[3-(5-hydroxy 3-indolyl) 2-aminopropionyloxy]acetate] | 22 |
| N[C@@H](Cc1c[nH]c2ccc(O)cc12)C(=O)OCC(=O)OCC12CC3CC(CC(C3)C1)C2 [Example 15b, 1-adamantyl methyl L-2-[3-(5-hydroxy 3-indolyl) 2-aminopropionyloxy]acetate] | 17 |
| CC(OC(=O)COC(=O)[C@@H](N)Cc1c[nH]c2ccc(O)cc12)C(C)(C)C (stereo partly drawn) [Example 14c, (3,3-dimethyl) 2-butyl L-2-[3-(5-hydroxy 3-indolyl) 2-aminopropionyloxy]acetate] | 32 |
| CCCCOC(=O)COC(=O)[C@@H](N)Cc1c[nH]c2ccc(O)cc12 [Example 8b, n-butyl L-2-[3-(5-hydroxy 3-indolyl) 2-aminopropionyloxy]acetate] | 20 |

Test system: not listed separately
Assay: acute toxicity in the mouse (LD50)
Conditions: in vivo, po, orally
Procedure: The acute toxicities of the derivatives according to the invention in the mouse are very much less than those of L 5-HTP. Thus the LD50's of all of the compounds according to the invention are higher than 1250 mg/kg, whereas the LD50 (orally) of L 5-HTP is equal to 700 mg/kg.

| Compound | LD50 [mg/kg] |
| --- | --- |
| N[C@@H](Cc1c[nH]c2ccc(O)cc12)C(=O)O [(L)5 HTP, 5-hydroxy-tryptophane, reference compound] | 700 |
